In one assay the target is T1, Stromelysin (Mus musculus, UniProt P28862).
T1 construct: endogenous in cells; host or cells: Colon 26 (mouse colon cancer cells), culture supernatant, purified
As to the kind of experiment: Stromelysin inhibiting activity (fluorescence labeled casein). It counts as biochemical. Conditions: from mouse colon cancer cell (Colon 26); 3 hours at 37° C., pH 7.5. The procedure: (1) Measuring Method of Stromelysin Inhibiting Activity
Inhibiting of Stromelysin refined from the culture supernatant of mouse colon cancer cell (Colon 26 cell) was measured by using fluorescence labeled casein, according to the method proposed by Miyazaki et al. (J. Biochem., 108, 537-543, 1990), and S. S. Twining [Fed. Proc., 42, 1951 (1984)].
The enzyme was activated by incubating for 2 hours at 37° C. in 1 mM mercury (II) p-aminophenylacetate. The test compound was used by dissolving in dimethyl sulfoxide. The enzyme reaction was started by adding the activated enzyme in a solution of 50 mM TRIS-hydrochloric acid (pH 7.5), 10 mM CaCl2, and 0.1% (v/v) dimethyl sulfoxide containing the test compound and 0.25% (w/v) of fluorescence labeled casein as substrate. The reaction was conducted for 3 hours at 37° C., and stopped by adding an equivalent amount of 5% (w/v) trichloroacetic acid solution. Afterwards, by centrifugal separation for 15 minutes at 3000 rpm, 4° C., the undigested substrate was precipitated, and to 1 part by volume of the obtained supernatant, 4 parts by volume of 0.3M phosphate buffer (pH 8.5) was added, and the fluorescence intensity was measured at 520 nm (Em)/495 nm (Ex), and the decomposition volume was quantitatively determined.
(§1) The enzyme inhibiting activity was expressed by the concentration (IC50) of the test compound wherein the enzyme activity of known amount was inhibited till 50%.

The target of a further assay is T2, Interstitial collagenase (Homo sapiens, UniProt P03956).
T2 construct: endogenous in cells; host or cells: Detroit 551 (human fibroblasts), culture supernatant, purified
T2 sequence (P03956 100-469): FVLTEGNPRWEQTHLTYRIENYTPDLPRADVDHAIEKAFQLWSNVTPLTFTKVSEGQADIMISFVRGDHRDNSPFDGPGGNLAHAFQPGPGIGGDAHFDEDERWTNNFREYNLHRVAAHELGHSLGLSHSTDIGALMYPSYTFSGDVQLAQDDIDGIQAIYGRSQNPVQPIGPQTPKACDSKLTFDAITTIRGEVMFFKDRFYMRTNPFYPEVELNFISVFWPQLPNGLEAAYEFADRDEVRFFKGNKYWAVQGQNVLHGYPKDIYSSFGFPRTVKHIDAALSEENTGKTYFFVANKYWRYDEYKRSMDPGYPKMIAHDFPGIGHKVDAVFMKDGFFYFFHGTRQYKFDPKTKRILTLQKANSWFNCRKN
Briefly: Interstitial collagenase inhibiting activity (fluorescence labeled collagen). As to conditions: from human fibroblast cell (Detroit 551); 2 hours at 35° C., pH 7.5. The assay is classed as biochemical. As to the method:
(2) Measuring Method of Interstitial Collagenase Inhibiting Activity
Inhibiting of interstitial collagenase refined from the culture supernatant of human fibroblast cell (Detroit 551 cell) was measured by using fluorescence labeled collagen, according to the method proposed by Nagai et al. [Inflammation, 4 (2), 123 (1984)].
The enzyme was activated by incubating for 3 hours at 37° C. in 1 mM mercury (II) p-aminophenylacetate. The test compound was used by dissolving in dimethyl sulfoxide. The enzyme reaction was started by adding the activated enzyme in 50 mM TRIS-hydrochloric acid (pH 7.5), 0.2M NaCl, 5 mM CaCl2, 0.02% (w/v) NaN3, 2.5 mM acetic acid, and 0.1% (v/v) dimethyl sulfoxide solution containing the test compound and 0.025% (w/v) of fluorescence labeled collagen as substrate. The reaction was conducted for 2 hours at 35° C., and stopped by adding ice-chilled 80 mM O-phenanthroline, 50% (v/v) ethanol solution by 1/20 amount. To this, moreover, an equivalent volume of 50 mM TRIS-hydrochloric acid (pH 7.5), 0.2M NaCl, 5 mM CaCl2, 0.02% (w/v) NaN3 solution was added to incubate further for 1 hour at 35° C. to degenerate specifically only the digestion product, and the digestion product was extracted by adding 0.17M TRIS-hydrochloric acid (pH 9.5), 0.67M NaCl solution including an equivalent amount of 70% (v/v) ethanol, and afterwards, by centrifugal separation for 15 minutes at 3000 rpm, 4° C., the undigested substrate was precipitated. The fluorescence intensity of the obtained supernatant was measured at 520 nm (Em)/495 nm (Ex), and the decomposition volume was quantitatively determined.
as §1

Usually IC50 stands for the point on the concentration scale where inhibition reaches its midpoint. Read a low IC50 as higher potency.

T1 sequence (P28862 100-477): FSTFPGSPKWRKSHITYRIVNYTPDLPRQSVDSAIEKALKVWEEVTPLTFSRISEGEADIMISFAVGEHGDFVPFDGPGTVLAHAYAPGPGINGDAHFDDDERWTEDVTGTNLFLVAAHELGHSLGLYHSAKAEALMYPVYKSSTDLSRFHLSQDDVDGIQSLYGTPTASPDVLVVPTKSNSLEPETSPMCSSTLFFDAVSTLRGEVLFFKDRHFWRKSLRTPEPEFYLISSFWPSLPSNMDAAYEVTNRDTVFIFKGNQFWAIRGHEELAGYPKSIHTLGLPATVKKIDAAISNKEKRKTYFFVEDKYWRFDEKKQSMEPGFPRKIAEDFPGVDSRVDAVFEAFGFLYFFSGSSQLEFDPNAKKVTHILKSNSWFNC

Turning to `CON1C(=O)[C@@H](NC(=O)[C@H](CC(C)C)[C@H](C)C(=O)NO)Cc2ccccc21` [Test compound 9, 3S-[4-(N-hydroxyamino)-2R-isobutyl-3S-methylsuccinyl]amino-1-methoxy-3,4-dihydrocarbostyril], the IC50 at Stromelysin amounted to 36 nM; at Interstitial collagenase it was 22 nM. Take `COC(=O)c1ccc(CN2C(=O)[C@@H](NC(=O)[C@@H](CC(=O)NO)CC(C)C)Cc3ccccc32)cc1` [Test compound 11, 3S-[4-(N-hydroxyamino)-2R-isobutylsuccinyl]amino-1-(4-methoxycarbonylbenzyl)-3,4-dihydrocarbostyril]: the half-inhibitory concentration (IC50) at Stromelysin came out at 290 nM; at Interstitial collagenase it was 750 nM. As to `COCCN1C(=O)[C@H](NC(=O)[C@@H](CC(=O)NO)CC(C)C)Cc2cc3c(cc21)OCO3` [Test compound 25, 3R-[4-(N-hydroxyamino)-2R-isobutylsuccinyl]amino-1-methoxyethyl-6,7-methylenedioxy-3,4-dihydrocarbostyril], the midpoint of inhibition at Interstitial collagenase, the IC50, lay at 4100 nM. As to `C=CCN1C(=O)[C@@H](NC(=O)[C@H](CC(C)C)[C@H](C)C(=O)NO)Cc2ccccc21` [Test compound 13, 1-allyl-3S-[4-(N-hydroxyamino)-2R-isobutyl-3S-methylsuccinyl]amino-3,4-dihydrocarbostyril], the results for the IC50 at Stromelysin and against Interstitial collagenase were 28 nM and 10 nM, respectively. Molecule `CCCCCCC[C@H](CC(=O)NO)C(=O)N[C@H]1Cc2ccccc2N(OC)C1=O` [Test compound 20, 3S-[4-(N-hydroxyamino)-2R-heptylsuccinyl]amino-1-methoxy-3,4-dihydrocarbostyril] returned an IC50 against Interstitial collagenase of 220 nM. On Interstitial collagenase, `CCCCC[C@H](CC(=O)NO)C(=O)N[C@H]1Cc2ccccc2N(OC)C1=O` [Test compound 30, 3S-[4-(N-hydroxyamino)-2R-pentylsuccinyl]amino-1-methoxy-3,4-dihydrocarbostyril] displayed an IC50 of 11 nM.

In the case of `CCOC(=O)CN1C(=O)[C@@H](NC(=O)[C@@H](CC(=O)NO)CC(C)C)Cc2ccccc21` [Test compound 8, 1-ethoxycarbonylmethyl-3S-[4-(N-hydroxyamino)-2R-isobutylsuccinyl]amino-3,4-dihydrocarbostyril], the IC50 stood at 380 nM against Stromelysin and 160 nM on Interstitial collagenase.

As for `CCN1C(=O)[C@@H](NC(=O)[C@@H](CC(=O)NO)CC(C)C)Cc2cc3c(cc21)OCO3` [Test compound 28, 1-ethyl-3S-[4-(N-hydroxyamino)-2R-isobutylsuccinyl]amino-6,7-methylenedioxy-3,4-dihydrocarbostyril], the half-maximal inhibitory concentration (IC50) on Interstitial collagenase amounted to 87 nM. Regarding `COCON1C(=O)[C@@H](NC(=O)[C@@H](CC(=O)NO)CC(C)C)Cc2ccccc21` [Test compound 31, 3S-[4-(N-hydroxyamino)-2R-isobutylsuccinyl]amino-1-methoxymethoxy-3,4-dihydrocarbostyril], the IC50 against Interstitial collagenase amounted to 370 nM.

`COCCN1C(=O)C(NC(=O)[C@@H](CC(=O)NO)CC(C)C)Cc2cc3c(cc21)OCO3` (stereo partly drawn) [Test compound 26, 3-[4-(N-hydroxyamino)-2R-isobutylsuccinyl]amino-1-methoxyethyl-6,7-methylendioxy-3,4-dihydrocarbostyril] had an IC50 on Interstitial collagenase of 1000 nM.

At Interstitial collagenase, `CC(C)C[C@@H](C(=O)N[C@H]1Cc2ccccc2N(CC(=O)O)C1=O)[C@H](C)C(=O)NO` [Test compound 16, 1-carboxymethyl-3S-[4-(N-hydroxyamino)-2R-isobutyl-3S-methylsuccinyl]amino-3,4-dihydrocarbostyril] came in with an IC50 of 69 nM. With `COCN1C(=O)[C@@H](NC(=O)[C@@H](CC(=O)NO)CC(C)C)Cc2ccccc21` [Test compound 14, 3S-[4-(N-hydroxyamino)-2R-isobutylsuccinyl]amino-1-methoxymethyl-3,4-dihydrocarbostyril], the IC50 on Stromelysin was 37 nM; against Interstitial collagenase, 22 nM.

Turning to `COCCOCN1C(=O)[C@@H](NC(=O)[C@@H](CC(=O)NO)CC(C)C)Cc2ccccc21` [Test compound 18, 3S-[4-(N-hydroxyamino)-2R-isobutylsuccinyl]amino-1-methoxyethoxymethyl-3,4-dihydrocarbostyril], at Interstitial collagenase, the IC50 stood at 88 nM. For `CCOCC[C@H](CC(=O)NO)C(=O)N[C@H]1Cc2ccccc2N(OC)C1=O` [Test compound 22, 3S-[4-(N-hydroxyamino)-2R-ethoxyethylsuccinyl]amino-1-methoxy-3,4-dihydrocarbostyril], on Interstitial collagenase, the IC50 came out at 3700 nM. Compared with the last molecule, the IC50 is about 42-fold higher.

`C#CCN1C(=O)[C@@H](NC(=O)[C@H](CC(C)C)[C@H](C)C(=O)NO)Cc2ccccc21` [Test compound 15, 3S-[4-(N-hydroxyamino)-2R-isobutyl-3S-methylsuccinyl]amino-1-(2-propynyl)-3,4-dihydrocarbostyril] yielded an IC50 against Interstitial collagenase of 20 nM.

As to `CC(C)C[C@H](CC(=O)NO)C(=O)N[C@H]1Cc2ccccc2N(CC(N)=O)C1=O` [Test compound 10, 1-aminocarbonylmethyl-3S-[4-(N-hydroxyamino)-2R-isobutylsuccinyl]amino-3,4-dihydrocarbostyril], the IC50 at Stromelysin came out at 200 nM; on Interstitial collagenase, 31 nM. With `COCCN1C(=O)[C@@H](NC(=O)[C@@H](CC(=O)NO)CC(C)C)Cc2ccccc21` [Test compound 21, 3S-[4-(N-hydroxyamino)-2R-isobutylsuccinyl]amino-1-methoxyethyl-3,4-dihydrocarbostyril], inhibition on Interstitial collagenase was half-maximal at 110 nM (IC50). On Interstitial collagenase, `CCON1C(=O)[C@@H](NC(=O)[C@@H](CC(=O)NO)CC(C)C)Cc2ccccc21` [Test compound 17, 1-ethoxy-3S-[4-(N-hydroxyamino)-2R-isobutylsuccinyl]amino-3,4-dihydrocarbostyril] yielded an IC50 of 41 nM. Compared with the last molecule, the IC50 is about 2.7-fold lower. Still for that read-out and setting: the same measure for `COCCN1C(=O)[C@@H](NC(=O)[C@@H](CC(=O)NO)CC(C)C)Cc2cc3c(cc21)OCO3` [Test compound 24, 3S-[4-(N-hydroxyamino)-2R-isobutylsuccinyl]amino-1-methoxyethyl-6,7-methylenedioxy-3,4-dihydrocarbostyril]: 740 nM. `CCN1C(=O)[C@@H](NC(=O)[C@@H](CC(=O)NO)CC(C)C)Cc2ccccc21` [Test compound 12, 1-ethyl-3S-[4-(N-hydroxyamino)-2R-isobutylsuccinyl]amino-3,4-dihydrocarbostyril]: the 50% inhibitory concentration (IC50) came to 700 nM against Stromelysin and 290 nM against Interstitial collagenase. Take `CON1C(=O)[C@@H](NC(=O)[C@H](CC(C)C)C(Cc2ccc3c(c2)OCO3)C(=O)NO)Cc2ccccc21` (stereo partly drawn) [Test compound 23, 3S-[4-(N-hydroxyamino)-2R-isobutyl-3-(3,4-methylenedioxybenzyl)succinyl]amino-1-methoxy-3,4-dihydrocarbostyril]: on Interstitial collagenase, the midpoint of inhibition, the IC50, lay at 0.064 nM.

These data come from patent publication US5594006A, “Carbostyril derivatives as matrix metalloproteinases inhibitors” (Otsuka Pharmaceutical Co., Ltd., priority 1993, dated 1997).
